How the values were obtained:
[1] = Hypoglycemic potency (United States Pharmacopeia method); assay type: in vivo; conditions: relative to unmodified insulin; USP Vol. 18 method
Description: Hypoglycemic potency of the modified insulin was measured as described in "The United States Pharmacopeia", Mark Publishing Co., Vol. 18, pp. 883-884 (1964). Bioactivity was 62% as compared to unmodified insulin.

[2] = Aggregation tendency assessed by turbidity of the solution (absorbance difference at 400 nm); assay type: physicochemical; conditions: 0 to 0.1 A non-aggregated, above 0.3 aggregated
Description: The tendency of modified insulin to aggregate was assessed by measuring the turbidity of the solution. This method is based on the work of Leach and Scheraga (S. J. Leach and H. A. Scheraga (1964) J. Amer. Chem. Soc. 82, 4790-4792) who stated that absorbancy observed in insulin solutions between 350 and 600 nm is due to light scattering of aggregated particles. Briefly, 10 mg of sample was dissolved in 2 ml of isotonic phosphate buffered saline (PBS) and the solution was passed 50 times through a 3 cc plastic syringe (B-D Plastipak, Luer Lok Type) equipped with a 26G 3/8" hypodermic needle. After deaeration under vacuo for 60 min. 1 ml of this solution was diluted with 1 ml of PBS, and the turbidity was measured on a Hewlett Packard spectrophotometer type HP 8590, utilizing as a blank a non-aggregated sample diluted by 1 volume of 8M guanidine hydrochloride. Aggregation was measured by the difference in absorbance determined at 400 nm for the two samples. Non-aggregated samples gave absorbance values of 0 to 0.1 Absorbance Unit(A), Values above 0.3 were considered to be aggregated. Utilizing this assay the turbidity of this modified insulin dissolved in PBS was 0.08 A. In contrast unmodified porcine sodium insulin dissolved in distilled water has an absorbance of 0.51 A when treated according to the above procedure.

Row | Substance | Bioactivity as compared to unmodified insulin (hypoglycemic potency) [1] [%] | Turbidity (difference in absorbance at 400 nm) ([2]; dissolved in PBS, passed 50 times through a 26G needle) [A] | Turbidity (difference in absorbance at 400 nm) ([2]; dissolved in distilled water, treated according to the same procedure) [A]
1 | Example 1: porcine sodium insulin sulphated with sulfuric acid and N,N' dicyclohexyl carbodiimide in DMF; mixture of sulphated isomers | 62 | 0.08 | 
2 | Example 4: porcine sodium insulin phosphorylated with concentrated phosphoric acid and DCC in DMF | 85 |  | 
3 | unmodified porcine sodium insulin: unmodified porcine sodium insulin, starting material and comparator [reference compound] |  |  | 0.51

Source: patent publication US4705845A, “Process for sulphation and phosphorylation of proteins and peptides” (Rockefeller University, priority 1986, dated 1987)
